In publication PMC5602130, “Food and Sex-Related Impacts on the Pharmacokinetics of a Single-Dose of Ginsenoside Compound K in Healthy Subjects” (Frontiers in Pharmacology, 2017):
Read-outs that look alike come from different tables or passages of the source. Marks after values point to notes of the source that are not given here.

Tests used:
[1] = parameters: method as in unpublished; conditions: single oral dose at 800 mg; ref unpublished; cited from earlier work
[2] = Food-effect two-period crossover trial: plasma pharmacokinetics after a single 200 mg oral dose of Ginsenoside CK Tablets; type: in vivo, human; conditions: for AUC(0-inf) / AUC(0-t) / Tmax / Cmax / half-life / MRT inf / MRT last: human, plasma, po, 200 mg; for AUC(0-inf) / AUC(0-t) / Tmax / Cmax / half-life / MRT inf / MRT last / V/F: single oral 200 mg CK; for Tmax: median (range); for Cmax: read-out: Cmax; for half-life: read-out: t1/2 (converted)
Experimental: The food-effect trial was an open-label, randomized, two-period, two-treatment crossover trial, carried out from 15 January to 31 March 2015. Subjects (n = 24) were admitted to the clinical facility (Center of Clinical Pharmacology, the Third Xiangya Hospital, Central South University, Changsha, China) and randomized to receive a single 200 mg oral dose of Ginsenoside CK Tablets (4 × 50 mg tablets) either after a 10 h-fasting period or within 30 min after beginning the consumption of a recommended high-fat, high calorie breakfast (150 calories of protein, 250 calories of carbohydrates, 500 to 600 calories of fat; total calories approximately 800–1,000). Tablets were administered with 250 mL of water, to each subject, in each treatment period. Drinking was prohibited for 2 h before and after medication. Apart from this, the amount and time of drinking were not strictly controlled. Subjects had unified, standard meals 4 and 10 h after drug administration. The alternate treatment was conducted after a 14-day washout period.
Serial blood samples (5 mL) for PK assessment were collected from an indwelling catheter or by direct venipuncture prior to the administration (t = 0) and 0.25, 0.5, 1, 1.5, 2, 2.5, 3, 3.5, 4, 5, 6, 8, 12, 24, 36, 48, 72, and 96 h after the administration of ginsenoside CK. We inferred that these sampling times were sufficient for this trial, based on international guidelines (FDA, [2003]; CFDA, [2005]) and our previous results, since the sampling time is longer than at least three terminal half-lives of the drug. Additionally, the mean plasma concentrations of both CK and 20(S)-PPD at 96 h were considerably <1/20 of their Cmax even when the single oral dose at 800 mg (unpublished). Plasma was separated in blood collection tubes by centrifugation (3,000 rpm, 10 min) at 4°C within 1 h after sampling, transferred to labeled storage tubes and stored at −70°C pending workup and analysis.
Descriptive statistics of PK parameters were calculated using established non-compartmental methods, utilizing the WinNonLin version 6.1 software (Pharsight Corporation, USA). The PK parameters determined for each participant included apparent terminal half-life (t1/2), maximum plasma concentration (Cmax), time to Cmax (tmax), area under the plasma concentration-time curve from the time of administration up to the last time point with a measurable concentration post-dose (AUClast), AUC extrapolated to infinity (AUCinf), apparent volume of distribution (V/F), apparent plasma clearance (CL/F) after extravascular administration, mean residence time (MRTlast and MRTinf), and the cumulative excretion rate from urine. The t1/2 was estimated as (ln2)/K, where K represented the slope of the terminal phase of plasma concentration-time profile and was assessed with a weighting factor of 1, using least squares (log-linear regression of at least three data points). The Cmax and tmax were obtained from experimental observations. The values of AUC were calculated using conventional trapezoidal and log-trapezoidal methods and the extrapolated area (Rowland and Tozer, [1995]). CL/F and V/F were calculated as dose/AUCinf and (CL/F)/K, respectively. MRT was calculated as MRT = AUMC/AUC, where AUMC is the area under the first moment curve. The cumulative excretion rate was calculated as the amount of unchanged drug over a time interval in the urine divided by dose, and was expressed as a percentage.
All samples were detected using a LC-MS/MS (API 4000, ABI Company, USA) method, validated at the Institute of Clinical Pharmacology, Central South University (Changsha, China). Concentrations of CK and 20(S)-PPD were measured using a triple quadrupole tandem mass spectrometer in multiple reaction monitoring (MRM) mode, via a positive electrospray ionization source at m/z 621.4→ 160.8 for the CK and m/z 461.5→425.3 for 20(S)-PPD, with a dwell time of 200 ms. […]

[3] = geometric mean ratio FO vs. HF, n = 24

CC(C)=CCC[C@](C)(O)C1CC[C@]2(C)C1[C@H](O)CC1[C@@]3(C)CC[C@H](O)C(C)(C)C3CC[C@]12C (stereo partly drawn) [20(S)-PPD, 20(S)-protopanaxadiol]
Mean plasma concentration at 96 h as fraction of Cmax [1]: < 1/20
lgAUClast GMR (90%CI) ([2]; FO vs. HF (Female), n = 12): 1.83 (1.27–2.64)
lgCmax GMR (90%CI) ([2]; FO vs. HF (Female), n = 12): 1.98 (1.47–2.66)
lgAUClast GMR (90%CI) ([2]; FO vs. HF (Male), n = 12): 1.08 (0.69–1.70)
lgCmax GMR (90%CI) ([2]; FO vs. HF (Male), n = 12): 1.12 (0.74–1.70)
lgAUClast GMR (90%CI) ([2]; M vs. F (FO), n = 12): 0.34 (0.15–0.75)
lgCmax GMR (90%CI) ([2]; M vs. F (FO), n = 12): 0.48 (0.23–0.99)
lgAUClast GMR (90%CI) ([2]; M vs. F (HF), n = 12): 0.57 (0.23–1.41)
lgCmax GMR (90%CI) ([2]; M vs. F (HF), n = 12): 0.84 (0.38–1.84)
AUC(0-inf) ([2]; both sexes, FO, all subjects): 228 ± 96.1 ng·h/mL
AUC(0-t) ([2]; both sexes, FO, all subjects): 161 ± 114 ng·h/mL
AUC(0-inf) ([2]; both sexes, HF, all subjects): 163 ± 95.4 ng·h/mL
AUC(0-t) ([2]; both sexes, HF, all subjects): 116 ± 97.1 ng·h/mL
Tmax ([2]; female, FO): 26 h
Tmax ([2]; female, HF): 26 h
Cmax ([2]; female, FO, female): 6.4 ± 2.7 ng/mL
half-life ([2]; female, FO, female): 19.9 ± 5.5 h
Cmax ([2]; female, HF, female): 3.5 ± 2.1 ng/mL
half-life ([2]; female, HF, female): 21.2 ± 7.6 h
MRT inf ([2]; female, FO): 40.7 ± 7.5 h
MRT last ([2]; female, FO): 36.3 ± 6.8 h
MRT inf ([2]; female, HF): 46.7 ± 8.6 h
MRT last ([2]; female, HF): 37.5 ± 5.8 h
AUC(0-inf) ([2]; female, FO): 225 ± 86.4 ng·h/mL
AUC(0-t) ([2]; female, FO): 203 ± 88.8 ng·h/mL
AUC(0-inf) ([2]; female, HF): 154 ± 99.5 ng·h/mL
AUC(0-t) ([2]; female, HF): 132 ± 97.4 ng·h/mL
lgAUClast GMR (90%CI) [2, 3]: 1.41 (1.05–1.88)
lgCmax GMR (90%CI) [2, 3]: 1.49 (1.15–1.93)
Tmax ([2]; FO, all subjects): 24.5 h
Tmax ([2]; HF, all subjects): 26 h
half-life ([2]; FO (fasting overnight), all subjects): 19.3 ± 6 h
Cmax ([2]; FO, all subjects): 5.7 ± 3.8 ng/mL
half-life ([2]; HF (high-fat meal), all subjects): 21.2 ± 9.8 h
Cmax ([2]; HF, all subjects): 3.7 ± 3 ng/mL
MRT inf ([2]; FO, all subjects): 38.5 ± 9.7 h
MRT last ([2]; FO, all subjects): 31.7 ± 8.4 h
MRT inf ([2]; HF, all subjects): 45.1 ± 9.5 h
MRT last ([2]; HF, all subjects): 33.8 ± 6.9 h
Tmax ([2]; male, FO): 23 h
Tmax ([2]; male, HF): 26 h
Cmax ([2]; male, FO, male): 4.9 ± 4.7 ng/mL
half-life ([2]; male, FO, male): 18.2 ± 7.1 h
Cmax ([2]; male, HF, male): 3.9 ± 3.8 ng/mL
half-life ([2]; male, HF, male): 21.2 ± 13.7 h
MRT inf ([2]; male, FO): 34.5 ± 12.5 h
MRT last ([2]; male, FO): 27 ± 7.4 h
MRT inf ([2]; male, HF): 42.2 ± 11.1 h
MRT last ([2]; male, HF): 30.2 ± 5.9 h
AUC(0-inf) ([2]; male, FO): 234 ± 121 ng·h/mL
AUC(0-t) ([2]; male, FO): 120 ± 124 ng·h/mL
AUC(0-inf) ([2]; male, HF): 178 ± 94.2 ng·h/mL
AUC(0-t) ([2]; male, HF): 100 ± 98.5 ng·h/mL
V/F ([2]; FO, all subjects): 30,348 ± 22,300^a L
V/F ([2]; FO, female): 33,100 ± 27,003^c L
V/F ([2]; FO, male): 25,304 ± 9,268^b L
V/F ([2]; HF, all subjects): 61,539 ± 64,303^a L
V/F ([2]; HF, female): 64,980 ± 64,481^c L
V/F ([2]; HF, male): 55,230 ± 69,586^b L
